{"source": "paper PMC5626781", "about": "“A Potent Tartrate Resistant Acid Phosphatase Inhibitor to Study the Function of TRAP in Alveolar Macrophages” (Scientific Reports, 2017)", "key": {"[1]": {"test_system": "RAW264.7 macrophages", "experiment": "Live cell imaging of macrophage migration on osteopontin-coated wells", "assay_type": "cell-based, mouse", "settings": "AubipyOMe 80 nM", "procedure": "Briefly, RAW264.7 macrophages were plated on osteopontin-coated (10 μg/ml, R&D) Lab-tek chamber slides (Nunc, Hatfield, USA). Cells were incubated with or without RANKL (200 ng/ml) for 48 hours to induce TRAP activity or not[75], followed by labeling with carboxyfluorescein diacetate succinimidyl ester (CFSE, Invitrogen, Life Technologies Europe BV, Bleiswijk, The Netherlands) to visualize cells for live cell imaging using a confocal microscope (Solamere Nipkow Confocal Live Cell Imaging system, Solamere Technology Group, Salt lake city, USA). Cell movement was tracked overnight in the presence of 1% zymosan solution (Sigma-Aldrich), to stimulate cell movement, and with or without TRAP inhibitor AubipyOMe (80 nM). Pictures were taken every 10 min and were transformed into movies with Image J and Imaris x64 (Bitplane, Zurich, Switzerland) software.\nIC50 of four independent experiments was calculated.\n(§1) Transwell experiment to assess macrophage migration\nMigration of RAW264.7 macrophages was assessed using a transwell-culturing system with inserts (Sigma-Aldrich) coated with osteopontin (10 µg/ml, R&D). Bovine collagen-coated inserts (Advanced Biometrix, Carlsbad, USA) were used as a matrix control. […] The number of cells migrated to the lower well, including dead cells, was calculated relative to control cells and individual experiments were done at least six times. […]"}, "[2]": {"biological_target": "T1, recombinant human TRAP5a (Homo sapiens, UniProt P13686)", "T1 construct": "made in house", "T1 sequence (P13686 22-325)": "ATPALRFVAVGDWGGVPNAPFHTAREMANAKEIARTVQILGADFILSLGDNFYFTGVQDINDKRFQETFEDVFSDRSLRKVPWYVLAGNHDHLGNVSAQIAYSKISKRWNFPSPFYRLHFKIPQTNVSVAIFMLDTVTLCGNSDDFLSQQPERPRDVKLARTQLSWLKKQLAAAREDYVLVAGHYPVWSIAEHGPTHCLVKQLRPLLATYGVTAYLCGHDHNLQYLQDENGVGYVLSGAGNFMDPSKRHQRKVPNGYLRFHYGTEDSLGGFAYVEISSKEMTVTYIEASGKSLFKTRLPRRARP", "experiment": "TRAP activity assay (PNPP) with recombinant TRAP5a", "assay_type": "biochemical", "settings": "pH 5, 30 min 37 °C, mean ± standard error, n = 3", "procedure": "(§2) Recombinant unspecified human TRAP was purchased from R&D (Minneapolis, USA). Recombinant human TRAP5a and 5b were produced and purified according to a protocol based on several sources[70]–[72] using an ÄKTApurifier™ 10 FPLC system (GE Healthcare, Danderyd, Sweden) as previously described.\n(§3) Inhibitor dilutions were prepared in acetate buffer from freshly prepared stock solutions (10 mM in DMSO). Recombinant unspecified TRAP (1.25 ng/ml, pH 4.5), TRAP5a (150 ng/mL, pH 5) or TRAP5b (150 ng/mL, pH 5.8) were incubated at 37 °C for 30 minutes with PNPP solution [10 mM PNPP, 200 mM sodium acetaat, 300 mM potassium chloride) at the indicated pH at a 1:1 ratio and increasing concentrations of NaAuCl4 (range 0–40 μM) or Au compounds (range 0–5.1 μM). To stop the reaction, 1M NaOH was added and absorption at 410 nm, with 490 nm as a reference value, was measured using a spectrophotometer.\n(§4) The inhibitory effects of gold compounds were calculated as the ratio of absorbance between the treated and untreated wells. The IC50 values were calculated using nonlinear curve fitting with a variable slope in Graphpad Prism 6 (Graphpad Software, la Jolla, USA). An average IC50 of three independent experiments was calculated."}, "[3]": {"test_system": "RAW264.7 macrophages", "experiment": "Transwell migration, osteopontin-coated membrane", "assay_type": "cell-based, mouse", "settings": "AubipyOMe 80 nM, 5-PNA 100 μM", "procedure": "Migration of RAW264.7 macrophages was assessed using a transwell-culturing system with inserts (Sigma-Aldrich) coated with osteopontin (10 μg/ml, R&D). Bovine collagen-coated inserts (10 μg/ml, Advanced Biometrix, Carlsbad, USA) were used as matrix control. Cells were incubated with or without RANKL (200 ng/ml) for 72 hours to induce TRAP activity or not[75], in the presence or absence of AubipyOMe (80 nM) in quadruplicate. The previously described TRAP inhibitor 5-PNA (100 μM) was used as selective positive control for TRAP inhibition[15],[23]. The number of cells migrated to the lower well, including dead cells, was calculated relative to control cells and individual experiments were done at least six times. […]\nas §1\nMigration of RAW264.7 macrophages was assessed using a transwell-culturing system with inserts (Sigma-Aldrich) coated with osteopontin (10 µg/ml, R&D). Bovine collagen-coated inserts (Advanced Biometrix, Carlsbad, USA) were used as a matrix control. RAW264.7 macrophages, pre-stimulated with 200 ng/ml RANKL for 72h to induce TRAP activity16, were seeded on 8 µm pore inserts coated with osteopontin (10 µg/ml, 250,000 cells/well) or collagen (10 μg/ml, 250,000 cells/well). Cells were cultured for 16h in the presence or absence of AubipyOMe (80 nM) in quadruplicate. The previously described TRAP inhibitor 5-PNA (100 µM) was used as selective positive control for TRAP inhibition12,17. The number of cells migrated to the lower well, including dead cells, was calculated relative to control cells and individual experiments were done at least six times. […]"}, "[4]": {"biological_target": "recombinant human TRAP5b (Homo sapiens, UniProt P13686)", "experiment": "TRAP activity assay (PNPP) with recombinant TRAP5b", "assay_type": "biochemical", "settings": "pH 5.8, 30 min 37 °C, mean ± standard error, n = 3", "procedure": "as §2, §3, §4"}}, "data": [{"compound": "COc1ccnc(-c2cc(OC)ccn2)c1.F[P-](F)(F)(F)(F)F.[Cl][Au+][Cl]", "note": "[AubipyOMe, [Au(4,4′-dimethoxy-2,2′-bipyridine)Cl2][PF6]]", "values": [{"measurement": "migratory behavior of RANKL-pretreated macrophages, live cell tracking", "setting": "[1]; RANKL 200 ng/ml 48 h", "result": "inhibited this migratory behavior"}, {"measurement": "migratory behavior of control cells, live cell tracking", "setting": "[1]; no RANKL", "result": "did not affect the migratory behavior"}, {"measurement": "IC50", "setting": "[2]", "result": "1300 ± 500", "unit": "nM"}, {"measurement": "migration of RANKL-pretreated macrophages through osteopontin-coated membrane", "setting": "[3]; RANKL 200 ng/ml 72 h, versus RANKL alone", "result": "significantly less migration"}, {"measurement": "migration through osteopontin-coated membrane, inhibitor alone", "setting": "[3]; no RANKL", "result": "did not affect migration"}, {"measurement": "IC50", "setting": "[4]", "result": "1800 ± 300", "unit": "nM"}]}]}
